Measurements from publication PMC6582431 (Chemmedchem, 2018).
Where two headings read alike, the source gives them in different places.

Experiments:
[1] = biological target: T1, FAAH (Mus musculus, UniProt O08914); test: In vivo FAAH inhibition, brain, after oral administration to mice; conditions: for in vivo FAAH inhibitory activity, brain: text b31; for time of maximal inhibitory effect in the brain (t max): post-dose; for ED50 cerebral FAAH: 0.001 to 3 mg kg^−1, 8 h post-administration
T1 sequence (O08914 1-579): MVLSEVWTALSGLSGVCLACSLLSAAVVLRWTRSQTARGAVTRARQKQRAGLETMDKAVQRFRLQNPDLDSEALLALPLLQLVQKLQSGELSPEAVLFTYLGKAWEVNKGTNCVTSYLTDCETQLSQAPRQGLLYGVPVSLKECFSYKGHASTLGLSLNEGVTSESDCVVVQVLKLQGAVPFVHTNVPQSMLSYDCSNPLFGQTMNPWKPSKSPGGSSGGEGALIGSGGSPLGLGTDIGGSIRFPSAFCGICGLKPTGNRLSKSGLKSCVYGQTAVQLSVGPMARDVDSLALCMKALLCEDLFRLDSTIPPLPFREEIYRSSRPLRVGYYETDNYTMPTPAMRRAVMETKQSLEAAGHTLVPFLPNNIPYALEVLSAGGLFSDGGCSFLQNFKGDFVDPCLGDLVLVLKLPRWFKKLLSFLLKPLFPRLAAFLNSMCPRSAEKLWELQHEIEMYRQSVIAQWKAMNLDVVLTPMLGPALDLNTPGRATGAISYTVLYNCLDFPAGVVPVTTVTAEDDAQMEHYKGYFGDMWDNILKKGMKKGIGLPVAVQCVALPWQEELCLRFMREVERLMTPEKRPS

[2] = test system: FAAH; conditions: read-out: FAAH IC50 (in vitro potency); cited from earlier work
[3] = biological target: T1, FAAH; test: In vivo FAAH inhibition, liver, after oral administration to mice; conditions: for in vivo FAAH inhibitory activity, liver: 0.1 mg kg^−1, mouse, p.o., text b31; for time of maximum inhibitory effect in the liver: 0.1 mg kg^−1 p.o., mice, post-dose
[4] = biological target: T2, MAGL (Rattus norvegicus, UniProt Q8R431); test: MAGL activity in rat cerebellum cytosol; type: biochemical; conditions: for MAGL activity, percent of control / MAGL (100 μM), percent of control: C inhib=100 μM in rat cerebellum cytosol; for MAGL activity, percent of control: Table 2; for selectivity over MAGL: text b31
T2 sequence (Q8R431 1-303): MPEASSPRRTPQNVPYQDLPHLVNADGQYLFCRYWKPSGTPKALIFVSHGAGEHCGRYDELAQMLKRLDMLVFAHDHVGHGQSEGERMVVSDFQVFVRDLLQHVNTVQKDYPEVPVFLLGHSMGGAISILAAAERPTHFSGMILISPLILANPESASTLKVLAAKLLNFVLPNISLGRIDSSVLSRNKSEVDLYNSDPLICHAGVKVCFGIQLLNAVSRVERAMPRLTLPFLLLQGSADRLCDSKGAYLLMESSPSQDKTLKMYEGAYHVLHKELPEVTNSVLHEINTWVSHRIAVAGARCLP

[5] = test system: carboxylesterases (CEs); test: CE activity in rat liver microsomes; type: biochemical; conditions: for CEs (10 μM), percent of control: 10 μM in rat liver microsomes; for CEs activity, percent of control: C inhib=10 μM in rat liver microsomes, Table 2; for selectivity over CEs: text b31
[6] = CYP450 metabolic stability, mouse liver microsomes; type: in vitro ADME; conditions: 1 h incubation; for CYP450 metabolic stability, Mouse, percent of remaining: 5 μM in liver microsomes; for CYPs (50 μM), percentage remaining: C inhib=50 μM in mouse liver microsomes
[7] = CYP450 metabolic stability, dog liver microsomes; type: in vitro ADME; conditions: 5 μM in liver microsomes, 1 h incubation
[8] = CYP450 metabolic stability, human liver microsomes; type: in vitro ADME; conditions: 5 μM in liver microsomes, 1 h incubation
[9] = CYP450 metabolic stability, primate liver microsomes; type: in vitro ADME; conditions: 5 μM in liver microsomes, 1 h incubation
[10] = CYP450 metabolic stability, rat liver microsomes; type: in vitro ADME; conditions: 5 μM in liver microsomes, 1 h incubation
[11] = biological target: T3, FAAH (Rattus norvegicus, UniProt P97612); test: In vitro FAAH activity in rat brain homogenates/membranes; type: biochemical; conditions: for FAAH activity, percent of control, 100 nM / FAAH activity, percent of control, 10 nM: rat brain homogenates, 15 min pre-incubation
T3 sequence (P97612 1-579): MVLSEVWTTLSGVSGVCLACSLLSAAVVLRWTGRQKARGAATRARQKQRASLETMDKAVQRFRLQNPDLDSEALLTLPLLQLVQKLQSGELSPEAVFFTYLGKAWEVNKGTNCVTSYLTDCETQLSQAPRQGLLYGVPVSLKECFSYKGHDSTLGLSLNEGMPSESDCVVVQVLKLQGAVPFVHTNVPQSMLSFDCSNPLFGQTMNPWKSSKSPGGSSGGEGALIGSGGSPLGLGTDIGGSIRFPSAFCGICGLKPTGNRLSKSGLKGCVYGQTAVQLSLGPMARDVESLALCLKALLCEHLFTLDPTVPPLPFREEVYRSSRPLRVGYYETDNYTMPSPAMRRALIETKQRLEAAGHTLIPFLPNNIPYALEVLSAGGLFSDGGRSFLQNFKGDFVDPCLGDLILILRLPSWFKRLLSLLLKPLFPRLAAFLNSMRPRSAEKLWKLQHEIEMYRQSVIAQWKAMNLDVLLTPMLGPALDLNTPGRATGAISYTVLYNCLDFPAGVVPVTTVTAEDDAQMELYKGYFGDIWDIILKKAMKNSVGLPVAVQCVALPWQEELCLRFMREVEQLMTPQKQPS

[12] = 0.1 mg kg^−1 p.o. in mice, 8 h after administration, Table 4
[13] = 30 mg kg^−1 p.o. in mice, 1 h after administration, Table 2
[14] = 0.1 mg kg^−1 p.o. in mice, 8 h after administration, Table 5
[15] = mouse, po, 8 h, read-out: ED50 liver FAAH

| SMILES | Brain FAAH activity, percent of control [1, 12] | Brain FAAH activity, percent of control [1, 13] | Liver FAAH activity, percent of control [3, 12] | Liver FAAH activity, percent of control [3, 13] | MAGL activity, percent of control [4] | MAGL (100 μM), percent of control ([4]; Table 4) | CYP450 metabolic stability, Mouse, percent of remaining [6] | CYP450 metabolic stability, Dog, percent of remaining [7] | CYP450 metabolic stability, Human, percent of remaining [8] | CYP450 metabolic stability, Primate, percent of remaining [9] | CYP450 metabolic stability, Rat, percent of remaining [10] | FAAH activity, percent of control, 10 nM ([11]; Table 2) | FAAH activity, percent of control, 100 nM ([11]; Table 2) | CYPs (50 μM), percentage remaining [6] [percentage remaining] | CEs (10 μM), percent of control ([5]; Table 4) | CEs activity, percent of control [5] | other results |
| --- | --- | --- | --- | --- | --- | --- | --- | --- | --- | --- | --- | --- | --- | --- | --- | --- | --- |
| NC(=O)c1cccc(-c2cccc(OC(=O)NC3CCCCC3)c2)c1 [Compound 2, URB597, reference compound] | 91±7% of control | 9±2% of control | 74±20% of control | 6±1% of control | 87±4% of control | 87±4% of control | – | – | – | – | – | – | – | – | […] | […] | FAAH inhibition in the brain ([1]; 30 mg kg^−1 p.o., mice, 1 h post-administration): over 90%; IC50 [2]: […]; inhibition at 30 mg/kg ([3]; mouse, po, read-out: FAAH inhibition in the liver): > 90% |
| CN(C(=O)n1cnc(-c2ccccc2)c1)C1CCN(Cc2ccccc2)CC1 [Compound 8 h] | – | – | – | – | – | – | 62±0% of remaining | 54±0% of remaining | 75±4% of remaining | 41±3% of remaining | 88±6% of remaining | – | – | – | – | – | cerebral (brain) FAAH inhibition ([1]; 0.1 mg kg^−1, mouse, p.o., 8 h post-dose): over 90%; in vivo FAAH inhibitory activity, brain ([1]; 0.1 mg kg^−1, mouse, p.o.): > 90 % of control; Brain FAAH activity, percent of control [1, 14]: 11±4% of control; time of maximal inhibitory effect in the brain (t max) ([1]; 0.1 mg kg^−1 p.o., mice): 8 h; central FAAH inhibition maintained up to 48 h post-administration ([1]; 0.1 mg kg^−1 p.o., mice, up to 48 h): > 50%; ED50 cerebral FAAH ([1]; mice, p.o.): approximately 79 μg kg^−1; FAAH activity, percent of control, 100 nM ([11]; Table 5): 41±7% of control; in vivo FAAH inhibitory activity, liver [3]: > 90 % of control; Liver FAAH activity, percent of control [3, 14]: 10±2% of control; time of maximum inhibitory effect in the liver [3]: 1 h; ED50 [3, 15]: 0.028 mg/kg; inhibition at 0.1 mg/kg ([3]; mouse, po, read-out: peripheral (liver) FAAH inhibition): > 90%; MAGL (100 μM), percent of control ([4]; Table 5): 92±8% of control; selectivity over MAGL [4]: > 80 % of control; CEs (10 μM), percent of control ([5]; Table 5): 97±8% of control; selectivity over CEs [5]: > 80 % of control |
| Cl.O=C(N1CCN(Cc2ccccc2)CC1)n1nnc2ccccc21 [Compound 10 i] | – | 20±5% of control | – | 15±4% of control | 7±4% of control | – | – | – | – | – | – | 0±0% of control | 0±0% of control | – | – | 27±1% of control | – |
| CC1(C)COCN1C(=O)n1nnc2ccc(Br)cc21 [Compound 11 b, (6‐Bromo‐1H‐benzo[d][1,2,3]triazol‐1‐yl)(4,4‐dimethyloxazolidin‐3‐yl)methanone] | 77±29% of control | – | 16±6% of control | – | – | 67±12% of control | – | – | – | – | – | – | – | 8±2 | 73±9% of control | – | – |
| CC1(C)COCN1C(=O)n1nnc2ccc(-c3ccccc3)cc21 [Compound 11 d, (4,4‐Dimethyloxazolidin‐3‐yl)(6‐phenyl‐1H‐benzo[d][1,2,3]triazol‐1‐yl)methanone] | 76±18% of control | – | 54±6% of control | – | – | – | – | – | – | – | – | – | – | 73±2 | 92±2% of control | – | – |
| CC1(C)COCN1C(=O)n1nnc2cc(C(N)=O)ccc21 [Compound 11 h, 1‐(4,4‐Dimethyloxazolidine‐3‐carbonyl)‐1H‐benzo[d][1,2,3]triazole‐5‐carboxamide] | 6±1% of control | – | 6±1% of control | – | – | 96±2% of control | 87±9% of remaining | 101±6% of remaining | 96±8% of remaining | 57±3% of remaining | 87±0% of remaining | – | – | 67±2 | 81±7% of control | – | in vivo FAAH inhibitory activity, brain ([1]; 0.1 mg kg^−1, mouse, p.o.): > 90 % of control; time of maximal inhibitory effect in the brain (t max) ([1]; 0.1 mg kg^−1 p.o., mice): 1 h; ED50 cerebral FAAH ([1]; mice, p.o.): 0.014 mg/kg; in vivo FAAH inhibitory activity, liver [3]: > 90 % of control; time of maximum inhibitory effect in the liver [3]: 1 h; ED50 [3, 15]: 0.007 mg/kg; inhibition at 0.1 mg/kg ([3]; mouse, po, read-out: peripheral inhibition of FAAH sustained over the next 7 h): > 90%; selectivity over MAGL [4]: > 80 % of control; selectivity over CEs [5]: > 80 % of control |

Continued, in another order:

| Brain FAAH activity, percent of control [1, 12] | Brain FAAH activity, percent of control [1, 13] | Liver FAAH activity, percent of control [3, 12] | Liver FAAH activity, percent of control [3, 13] | MAGL activity, percent of control [4] | MAGL (100 μM), percent of control ([4]; Table 4) | CYP450 metabolic stability, Mouse, percent of remaining [6] | CYP450 metabolic stability, Dog, percent of remaining [7] | CYP450 metabolic stability, Human, percent of remaining [8] | CYP450 metabolic stability, Primate, percent of remaining [9] | CYP450 metabolic stability, Rat, percent of remaining [10] | FAAH activity, percent of control, 10 nM ([11]; Table 2) | FAAH activity, percent of control, 100 nM ([11]; Table 2) | CYPs (50 μM), percentage remaining [6] [percentage remaining] | SMILES | CEs (10 μM), percent of control ([5]; Table 4) | CEs activity, percent of control [5] | other results |
| --- | --- | --- | --- | --- | --- | --- | --- | --- | --- | --- | --- | --- | --- | --- | --- | --- | --- |
| – | 88±7% of control | – | 30±5% of control | 12±4% of control | – | – | – | – | – | – | 1±0% of control | 0±0% of control | – | O=C(N1CCN(c2ccccc2)CC1)n1nnc2ccccc21 [Compound 10 j] | – | 28±2% of control | – |
| – | 0±0% of control | – | 1±0% of control | 73±3% of control | – | – | – | – | – | – | 1±0% of control | 1±2% of control | – | CN(C(=O)n1nnc2ccccc21)C1CCCCC1 [Compound 10 k] | – | 30±1% of control | – |
| 24±7% of control | 0±0% of control | 10±4% of control | 2±1% of control | 90±5% of control | 90±5% of control | 5±0% of remaining | 1±0% of remaining | 52±9% of remaining | 0±0% of remaining | 26±0% of remaining | 78±25% of control | 2±1% of control | 25±2 | CC1(C)COCN1C(=O)n1nnc2ccccc21 [Compound 11 a] | 81±6% of control | 81±6% of control | ED50 brain (cerebral) FAAH ([1]; mouse, p.o., 0.001–3.0 mg kg^−1, 1 h post-dose): 0.061 mg/kg; IC50 [11]: 19 nM; ED50 ([3]; mouse, po, 1 h, read-out: ED50 liver (peripheral) FAAH): 0.007 mg/kg |
